# Laboratory results: publication PMC11714206, “Massively Parallel Screening of Toll/Interleukin‐1 Receptor (TIR)‐Derived Peptides Reveals Multiple Toll‐Like Receptors (TLRs)‐Targeting Immunomodulatory Peptides” (Advanced Science, 2024)
# Target: T1, MyD88^TIR (Homo sapiens, UniProt Q99836)
# T1 construct: MyD88 (residues 148–296); 6xHis; made in house; host or cells: E. coli BL21 (DE3)
# Assay: T‐Surf phage library (P8 and P3) selection against MyD88^TIR, four rounds, NGS read counts
# Format: binding
# Conditions: for P8_MyD88 Rank (after) / P8_MyD88 Rank (before): P8 library; for Population: 4th round of selection against MyD88 TIR, share of NGS reads; for P3_MyD88 Rank (after) / P3_MyD88 Rank (before): P3 library
# Experimental: T‐Surf libraries were screened against the immobilized TIR domains of two major human TLR adaptor proteins, MAL^TIR and MyD88^TIR, allowing cross‐species selection of TIR‐binding motifs with 190 946 TIR‐derived peptides in a single binding assay (Scheme 1). Enriched phage pools from the fourth round of selection were analyzed using NGS after barcoding the peptide‐coding regions of the phage pools.
# Phage display screening was performed by coating two wells of a 96‐well plate (Maxisorp, Thermo Fisher Scientific) with 100 µL of 5 µg mL^−1 TIR domains overnight; then, the coated wells were blocked with 200 µL of blocking buffer (0.2% BSA in PBS) and set aside for 1 h at 4 °C with gentle shaking. Next, 100 µL of the phage library was added to the wells and incubated for 1 h at room temperature (RT; 20 – 22 °C) with gentle shaking. The plate was washed four times with PBS containing 0.5% Tween‐20; the bound phages were eluted by adding 100 µL of 100 mM HCl to each well. The elute was neutralized with 10 µL of 1.0 M Tris‐HCl (pH 11.0). E. coli TG1 cells were grown to the log phase (A600 = ≈0.6), and 1 mL of the culture was incubated with 100 µL of the eluted phages for 30 min at 37 °C, with shaking at 200 rpm. Next, 1 µL of M13KO7 helper phages was added, followed by incubation for 45 min at 37 °C, with shaking. Subsequently, the cells were transferred to 25 mL of 2× yeast extract tryptone/carbenicillin/kanamycin medium and incubated overnight at 37 °C with shaking at 200 rpm. The amplified phages were precipitated with 20% PEG‐8000/2.5 M NaCl to be used for the next round of selection.
# The naïve T‐Surf libraries in P8 and P3 and the enriched phage pools after four rounds were barcoded for NGS as previously described.^[ [59] ^] Briefly, 5 µL of the phage pool was used as a template for 20 cycles of a 50 µL PCR reaction using […] each of forward and reverse barcoded primers and PrimeSTAR Max DNA Polymerase. The PCR products were purified using Expin Gel SV (GeneAll). The NGS samples were quantified using qPCR, following the qPCR Quantification Protocol Guide (KAPA Library Quantification kits for Illumina Sequencing Platform), and qualified using the TapeStation High Sensitivity D1000 ScreenTape (Agilent Technologies). The indexed libraries were further sequenced by Macrogen (Seoul, Republic of Korea) using the NovaSeq platform (Illumina) with 100 bp paired‐end reads. The reads were demultiplexed by barcodes and filtered for an average Phred quality score of at least 30, followed by trimming the flanking consensus sequences using Cutadapt (version 2.3). Peptide sequence populations were analyzed according to the read counts.
# [1] = selection against MyD88, rank after grouping
# [2] = selection against MyD88, rank before grouping
# [3] = selection against MyD88 TIR, rank by count after grouping
# [4] = selection against MyD88 TIR, rank by count before grouping
# [5] = P8_MyD88: rank by count after grouping
# [6] = P8_MyD88: rank by count before grouping
# [7] = P3_MyD88: rank by count after grouping
# [8] = P3_MyD88: rank by count before grouping
# [9] = selection against MyD88, rank by count after grouping
# [10] = selection against MyD88, rank by count before grouping
# [11] = 4R selection against MyD88, rank after grouping
# [12] = 4R selection against MyD88, rank before grouping
# [13] = P3_MyD88 pool: P3 T-Surf phage library
# [14] = P8_MyD88: rank by NGS read count after grouping
# [15] = P8_MyD88: rank by NGS read count before grouping
# [16] = P8_MyD88 pool: P8 T-Surf phage library
# T1 sequence (Q99836 148-296): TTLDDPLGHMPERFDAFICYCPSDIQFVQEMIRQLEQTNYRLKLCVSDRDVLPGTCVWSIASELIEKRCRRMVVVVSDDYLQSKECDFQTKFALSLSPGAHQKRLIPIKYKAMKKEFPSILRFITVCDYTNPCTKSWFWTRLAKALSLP
sequence,measurement,setting,value
SPWALYELAMIIEAM,P8_MyD88 Rank (after),[1],503
same,P8_MyD88 Rank (before),[2],3761
WDFASNMAQFWDRRYY,P8_MyD88 Rank (after),[3],283
same,P8_MyD88 Rank (before),[4],1593
WALDEVLQILRARELF,Rank (after),[5],419
same,Rank (before),[6],1421
SSRRERLWRLLELSKK,Rank (after),[7],424
same,Rank (before),[8],3274
DPQDLEWFYERPVSLF,P8_MyD88 Rank (after),[3],259
same,P8_MyD88 Rank (before),[4],2853
YASSSWYLDALVQILHARELF,Rank (after),[5],388
same,Rank (before),[6],1856
YPQELVLFYELLGSLV,P8_MyD88 Rank (after),[9],699
same,P8_MyD88 Rank (before),[10],2101
DPQDLARSYERLVRLF,P8_MyD88 Rank (after),[11],610
same,P8_MyD88 Rank (before),[12],2690
YTALTNRGFLTFRDNA,Rank (after),[7],180
same,Rank (before),[8],1650
WMRALAYIVNIVGESS,P8_MyD88 Rank (after),[3],268
same,P8_MyD88 Rank (before),[4],529
SSFREGVWRLLEVSKK,Rank (after),[7],151
same,Rank (before),[8],3148
YTALTAAANLSGW,Population,[13],0.00378%
LGYHWIDWEYFEGIAD,Rank (after),[14],928
same,Rank (before),[15],3268
LKVENWRQALEQAGKL,P3_MyD88 Rank (after),[3],203
same,P3_MyD88 Rank (before),[4],2526
SSFREGLLRLLELSKK,Population,[13],0.0032%
NYASSSWALNELLEILK,P8_MyD88 Rank (after),[1],506
same,P8_MyD88 Rank (before),[2],3849
DPQGRDWFYERLVSLF,Rank (after),[5],394
same,Rank (before),[6],2672
WALDELLQILRARDLF,P8_MyD88 Rank (after),[9],727
same,P8_MyD88 Rank (before),[10],1465
YASYDDNDYYWVTPVLLRLV,Rank (after),[5],435
same,Rank (before),[6],1767
QGGDEITPSLFKAFKD,P3_MyD88 Rank (after),[3],265
same,P3_MyD88 Rank (before),[4],1150
ERLFIETQNVNKDLIG,P3_MyD88 Rank (after),[3],264
same,P3_MyD88 Rank (before),[4],2209
WDFASKMEQFLDRLYY,Rank (after),[14],893
same,Rank (before),[15],1632
WALNELLEILYANETM,P8_MyD88 Rank (after),[11],663
same,P8_MyD88 Rank (before),[12],1535
YASYDDFWDRLIRMIE,P8_MyD88 Rank (after),[3],248
same,P8_MyD88 Rank (before),[4],439
LGYHWNDREYFLDIED,P8_MyD88 Rank (after),[1],536
same,P8_MyD88 Rank (before),[2],3307
SAASDDFWDGLIRMIE,P8_MyD88 Rank (after),[1],502
same,P8_MyD88 Rank (before),[2],3704
SSFRRPVASAGTEQK,Rank (after),[7],471
same,Rank (before),[8],3247
WALDELWHILRALGLF,P8_MyD88 Rank (after),[11],631
same,P8_MyD88 Rank (before),[12],1426
AEFWERLRMTVLETME,Rank (after),[5],398
same,Rank (before),[6],1024
YAASPRWLDDLVNIVG,P8_MyD88 Rank (after),[1],521
same,P8_MyD88 Rank (before),[2],1754
SELRVVDDGSVSPPNL,P3_MyD88 Rank (after),[1],570
same,P3_MyD88 Rank (before),[2],3040
YNLISHLYDAMHRNRI,P3_MyD88 Rank (after),[1],549
same,P3_MyD88 Rank (before),[2],1746
PQELEWFYERPVSLML,Rank (after),[5],458
same,Rank (before),[6],3506
DPPDLDWCYQRLVNLP,Rank (after),[14],1026
same,Rank (before),[15],2628
YTALTNICFHTFRDND,Rank (after),[7],178
same,Rank (before),[8],1654
DPQDLVWFYESLVSLF,P8_MyD88 Rank (after),[3],263
same,P8_MyD88 Rank (before),[4],2714
YLKWGYPWFWDRLRYAM,Rank (after),[7],97
same,Rank (before),[8],342
NQCRNFLTAAANLSGW,Rank (after),[7],164
same,Rank (before),[8],3465
EAFAVHVWSSKANSLVG,P3_MyD88 Rank (after),[9],727
same,P3_MyD88 Rank (before),[10],2193
SSFREDLCRLLALSNK,P3_MyD88 Rank (after),[3],286
same,P3_MyD88 Rank (before),[4],3226
SSVRECLWRLLELSKK,P3_MyD88 Rank (after),[1],516
same,P3_MyD88 Rank (before),[2],3268
NEWVNAWTSKANRRVG,P3_MyD88 Rank (after),[11],602
same,P3_MyD88 Rank (before),[12],3395
WGQAVTEDLWGWLFNP,Rank (after),[5],176
same,Rank (before),[6],201
YLRADEFWTLEKLLTA,P8_MyD88 Rank (after),[11],609
same,P8_MyD88 Rank (before),[12],2071
QDLGWFYERLFSQM,P8_MyD88 Rank (after),[9],735
same,P8_MyD88 Rank (before),[10],3564
LKWGDPAYRLALHYRDFN,P3_MyD88 Rank (after),[1],500
same,P3_MyD88 Rank (before),[2],2445
AWIREQLRTALKERPP,P3_MyD88 Rank (after),[11],595
same,P3_MyD88 Rank (before),[12],1975
WALIELRTIMELWSGN,P8_MyD88 Rank (after),[3],220
same,P8_MyD88 Rank (before),[4],377
SFSFPLDQLSYFLNLP,Rank (after),[5],136
same,Rank (before),[6],147
same,Population,[16],0.0112%
DWVWDELLKILYANETM,P8_MyD88 Rank (after),[11],647
same,P8_MyD88 Rank (before),[12],2457
WWIQALAEVANMAGED,Rank (after),[5],134
same,Rank (before),[6],158
same,Population,[16],0.00925%
SSFRECLWRLLELSKK,Population,[13],0.00466%
DQQDLDWFYERLVSVF,P8_MyD88 Rank (after),[1],505
same,P8_MyD88 Rank (before),[2],3051
SWGQSFLKSPLGWLFA,P3_MyD88 Rank (after),[3],272
same,P3_MyD88 Rank (before),[4],2936
AWVWEYLLPNLVGPAG,P8_MyD88 Rank (after),[11],668
same,P8_MyD88 Rank (before),[12],2317
NELVHVCFSNENSQVG,P3_MyD88 Rank (after),[3],275
same,P3_MyD88 Rank (before),[4],3406
ELDFSHFWLFDGHAGGEA,Population,[16],0.02%
PRDLEWLYERLVSLIL,P8_MyD88 Rank (after),[3],278
same,P8_MyD88 Rank (before),[4],3410
LNWGDPYFWSKLRYAM,Population,[13],0.00291%
ISFREGLWRLLELSKK,Population,[13],0.00291%
YAASTWWHTVLARLMG,P8_MyD88 Rank (after),[1],540
same,P8_MyD88 Rank (before),[2],1760
DHHMDLPRDTAIKPEILG,P3_MyD88 Rank (after),[11],661
same,P3_MyD88 Rank (before),[12],2060
DHHLDLPRGKEIKPELLG,P3_MyD88 Rank (after),[3],245
same,P3_MyD88 Rank (before),[4],2038
WRWMNCCRFCMRVNC,P8_MyD88 Rank (after),[9],729
same,P8_MyD88 Rank (before),[10],1649
KELVHVWSSKANSRVG,P3_MyD88 Rank (after),[11],651
same,P3_MyD88 Rank (before),[12],3662
LKGGDPYFWSKLRYTM,Rank (after),[7],159
same,Rank (before),[8],2531
SSRWALDELVHIMQAL,Rank (after),[5],161
same,Rank (before),[6],179
same,Population,[16],0.00771%
NGHESENIKEIVDTIL,P3_MyD88 Rank (after),[3],212
same,P3_MyD88 Rank (before),[4],3377
YTALTIAAFIPFVIM,P3_MyD88 Rank (after),[1],574
same,P3_MyD88 Rank (before),[2],1647
YYDSRWALDELLQILHARELF,P8_MyD88 Rank (after),[3],232
same,P8_MyD88 Rank (before),[4],437
LGYHWIDWENLVGFED,P8_MyD88 Rank (after),[11],630
same,P8_MyD88 Rank (before),[12],3283
YASSSWALDELLQILW,P8_MyD88 Rank (after),[9],720
same,P8_MyD88 Rank (before),[10],1891
AVVRETQKIQPQRKNA,Rank (after),[7],466
same,Rank (before),[8],1885
DRQDLVWPYERLVSLL,P8_MyD88 Rank (after),[9],698
same,P8_MyD88 Rank (before),[10],2599
YAFTGHLHRYLVQRGV,Population,[13],0.00378%
NPADLDWFYERLVSLF,Rank (after),[14],939
same,Rank (before),[15],3878
YLKWGYRWYWDRLRFA,P3_MyD88 Rank (after),[1],543
same,P3_MyD88 Rank (before),[2],1576
NSSWALEELVKIMEAM,Rank (after),[5],186
same,Rank (before),[6],239
EWIREQLRPALKAQ,Rank (after),[7],147
same,Rank (before),[8],651
KNLFNELVHVWSSKANSLVG,Rank (after),[7],148
same,Rank (before),[8],800
DPQELQWIYERLVSLF,P8_MyD88 Rank (after),[9],759
same,P8_MyD88 Rank (before),[10],3018
AVGKETNKIQTPLKNA,Rank (after),[7],177
same,Rank (before),[8],1886
